The results in this text go back to patent publication US11116760B2 (Gilead Sciences, Inc., priority 2018, dated 2021).

The target in this test is α4β7 integrin (Homo sapiens (Human), UniProt P13612+P26010). In words: α4β7 Integrin Cell Capture Assay. The class given is cell-based. The settings on record: Table 1; capture of α4β7 expressing RPM18866 cells on MadCAM-1 extracellular domain-coated plate. The procedure:
α4β7 Integrin Cell Capture Assay
The potency of inhibitors in preventing α4β7 integrin interaction with MadCAM-1 was measured by monitoring the capture of α4β7 integrin expressing cells on a recombinant MadCAM-1 extracellular domain-coated plate. […] The plates were then washed with PBS and blocked with 3% BSA for 2 hours before being washed again.
RPM18866 cells were spun down and re-suspended in assay medium (DMEM+0.5% FBS+0.5 mM MnCl2) at a density of 0.5×10^6 cells/mL. […] The plates were incubated at 37° C. for 1 hour. 50 μL of cells were transferred to the blocked, MadCAM-1-coated plates and incubated for 30 minutes at 37° C. […] The plates were incubated for 90 minutes at room temperature. The plates were then washed 3 times with 70 μL of PBS per well and imaged on a Cellomics ArrayScan instrument. The cells that were bound to the plate were counted and plotted against the compound concentration to determine the EC50 of the test compounds.

α4β7 integrin, sequence (P13612 34-1032): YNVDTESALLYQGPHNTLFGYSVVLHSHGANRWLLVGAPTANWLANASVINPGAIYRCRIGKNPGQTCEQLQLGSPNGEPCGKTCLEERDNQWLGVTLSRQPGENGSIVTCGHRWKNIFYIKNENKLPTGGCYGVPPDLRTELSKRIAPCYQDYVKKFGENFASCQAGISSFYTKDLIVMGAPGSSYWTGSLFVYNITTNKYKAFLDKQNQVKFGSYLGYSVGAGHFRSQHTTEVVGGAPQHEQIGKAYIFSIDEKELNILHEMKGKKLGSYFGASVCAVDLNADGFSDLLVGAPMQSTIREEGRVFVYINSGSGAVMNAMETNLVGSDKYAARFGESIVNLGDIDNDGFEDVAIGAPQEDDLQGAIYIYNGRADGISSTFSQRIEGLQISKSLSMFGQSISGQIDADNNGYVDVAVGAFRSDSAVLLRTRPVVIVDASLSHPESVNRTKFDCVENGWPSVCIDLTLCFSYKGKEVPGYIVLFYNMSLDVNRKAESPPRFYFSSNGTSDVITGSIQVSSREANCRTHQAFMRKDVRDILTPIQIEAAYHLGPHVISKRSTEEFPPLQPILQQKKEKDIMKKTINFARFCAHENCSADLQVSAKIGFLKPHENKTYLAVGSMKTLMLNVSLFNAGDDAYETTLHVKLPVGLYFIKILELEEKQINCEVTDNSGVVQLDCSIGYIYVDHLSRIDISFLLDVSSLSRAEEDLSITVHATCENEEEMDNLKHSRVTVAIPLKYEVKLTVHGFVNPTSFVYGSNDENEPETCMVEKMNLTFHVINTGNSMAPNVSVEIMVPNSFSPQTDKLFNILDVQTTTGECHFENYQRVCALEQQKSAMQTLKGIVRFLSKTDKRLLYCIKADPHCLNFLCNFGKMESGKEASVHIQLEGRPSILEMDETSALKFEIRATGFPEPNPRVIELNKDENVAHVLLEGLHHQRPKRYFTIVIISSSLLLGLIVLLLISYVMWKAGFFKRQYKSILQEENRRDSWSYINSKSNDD
α4β7 integrin, sequence (P26010 20-798): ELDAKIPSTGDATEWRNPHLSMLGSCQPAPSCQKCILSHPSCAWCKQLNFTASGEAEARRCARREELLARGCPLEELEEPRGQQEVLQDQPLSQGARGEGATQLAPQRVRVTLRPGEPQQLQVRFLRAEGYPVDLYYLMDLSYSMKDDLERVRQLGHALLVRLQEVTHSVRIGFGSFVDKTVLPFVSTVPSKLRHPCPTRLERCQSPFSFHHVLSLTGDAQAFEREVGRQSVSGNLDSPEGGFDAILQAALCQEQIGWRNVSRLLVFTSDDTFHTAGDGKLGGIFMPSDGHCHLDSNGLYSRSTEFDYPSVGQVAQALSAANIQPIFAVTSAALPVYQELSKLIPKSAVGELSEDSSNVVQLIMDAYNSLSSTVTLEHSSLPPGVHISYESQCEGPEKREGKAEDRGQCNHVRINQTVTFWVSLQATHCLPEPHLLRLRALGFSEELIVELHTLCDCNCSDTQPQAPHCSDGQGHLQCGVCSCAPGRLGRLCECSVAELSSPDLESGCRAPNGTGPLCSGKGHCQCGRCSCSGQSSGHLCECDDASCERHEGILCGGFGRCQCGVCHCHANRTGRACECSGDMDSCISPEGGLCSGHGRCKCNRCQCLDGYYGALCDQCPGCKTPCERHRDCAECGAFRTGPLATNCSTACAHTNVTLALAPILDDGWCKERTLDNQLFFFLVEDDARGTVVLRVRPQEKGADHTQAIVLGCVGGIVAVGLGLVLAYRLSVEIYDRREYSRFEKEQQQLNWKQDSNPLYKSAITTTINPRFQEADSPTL

With `N#Cc1ccc(-c2ccc(C[C@H](NC(=O)c3c(F)cc(C(=O)O)cc3F)C(=O)O)c3cccnc23)c(Cl)c1` [Example 25, (S)-4-((1-carboxy-2-(8-(2-chloro-4-cyanophenyl)quinolin-5-yl)ethyl)carbamoyl)-3,5-difluorobenzoic acid], the response was half-maximal at 3.3 nM (EC50).
Then `N#Cc1ccc(-c2ccc(C[C@H](NC(=O)c3c(F)cc(C(=O)Nc4ccccc4)cc3F)C(=O)O)c3cccnc23)c(Cl)c1` [Example 26, (S)-3-(8-(2-chloro-4-cyanophenyl)quinolin-5-yl)-2-(2,6-difluoro-4-(phenylcarbamoyl)benzamido)propanoic acid], with 32.8 nM; and `C[C@@H](NC(=O)c1cc(F)c(C(=O)N[C@@H](Cc2ccc(-c3ccc(C#N)cc3Cl)c3ncccc23)C(=O)O)c(F)c1)c1ccccc1` [Example 27, (S)-3-(8-(2-chloro-4-cyanophenyl)quinolin-5-yl)-2-(2,6-difluoro-4-(((R)-1-phenylethyl)carbamoyl)benzamido)propanoic acid], with 12.8 nM; and `N#Cc1ccc(-c2ccc(C[C@H](NC(=O)c3c(F)cc(C(=O)NCC(F)(F)F)cc3F)C(=O)O)c3cccnc23)c(Cl)c1` [Example 28, (S)-3-(8-(2-chloro-4-cyanophenyl)quinolin-5-yl)-2-(2,6-difluoro-4-((2,2,2-trifluoroethyl)carbamoyl)benzamido)propanoic acid], with 33.5 nM.
`CC(C)(O)C#Cc1cc(Cl)c(C(=O)N[C@@H](Cc2ccc(-c3ccc(C#N)cc3Cl)c3ncccc23)C(=O)O)c(Cl)c1` [Example 29, (S)-3-(8-(2-chloro-4-cyanophenyl)quinolin-5-yl)-2-(2,6-dichloro-4-(3-hydroxy-3-methylbut-1-yn-1-yl)benzamido)propanoic acid] showed an EC50 of 68.7 nM.
Then `N#Cc1ccc(-c2ccc(C[C@H](NC(=O)c3c(Cl)cccc3Cl)C(=O)O)c3cc(F)cnc23)c(Cl)c1` [Example 30, (S)-3-(8-(2-chloro-4-cyanophenyl)-3-fluoroquinolin-5-yl)-2-(2,6-dichlorobenzamido)propanoic acid], with 16.9 nM; and `CCOCc1cc(OC)c(-c2ccc(C[C@H](NC(=O)c3c(F)cccc3F)C(=O)O)c3ccc(C)nc23)c(OC)c1` [Example 31, (S)-2-(2,6-difluorobenzamido)-3-(8-(4-(ethoxymethyl)-2,6-dimethoxyphenyl)-2-methylquinolin-5-yl)propanoic acid], with 19.3 nM; and `O=C(N[C@@H](Cc1ccc(-c2c(Cl)cc(F)cc2Cl)c2ncc(F)cc12)C(=O)O)c1c(F)cccc1F` [Example 32, (S)-3-(8-(2,6-dichloro-4-fluorophenyl)-3-fluoroquinolin-5-yl)-2-(2,6-difluorobenzamido)propanoic acid], with 75.9 nM.
With `N#Cc1ccc(-c2c(F)cc(C[C@H](NC(=O)c3c(F)cccc3F)C(=O)O)c3cccnc23)c(Cl)c1` [Example 34, (2S)-3-(8-(2-chloro-4-cyanophenyl)-7-fluoroquinolin-5-yl)-2-(2,6-difluorobenzamido)propanoic acid] the figure was 39.5 nM; with `O=C(N[C@@H](Cc1ccc(-c2ncc3ccccc3c2C(F)(F)F)c2ncc(F)cc12)C(=O)O)c1c(Cl)cccc1Cl` [Example 35, (S)-2-(2,6-dichlorobenzamido)-3-(3-fluoro-8-(4-(trifluoromethyl)isoquinolin-3-yl)quinolin-5-yl)propanoic acid], 6.2 nM; with `CCOCc1cc(OC)c(-c2ccc(C[C@H](NC(=O)c3c(F)cccc3F)C(=O)O)c3cc(C#N)cnc23)c(OC)c1` [Example 36, (S)-3-(3-cyano-8-(4-(ethoxymethyl)-2,6-dimethoxyphenyl)quinolin-5-yl)-2-(2,6-difluorobenzamido)propanoic acid], 21 nM.
Then `CCOCc1cc(OC)c(-c2ccc(C[C@H](NC(=O)c3c(F)cccc3F)C(=O)O)c3cc(C(F)(F)F)cnc23)c(OC)c1` [Example 37, (S)-2-(2,6-difluorobenzamido)-3-(8-(4-(ethoxymethyl)-2,6-dimethoxyphenyl)-3-(trifluoromethyl)quinolin-5-yl)propanoic acid], with 69.6 nM; and `CCOCc1cc(OC)c(-c2ccc(CC(NC(=O)c3c(F)cccc3F)C(=O)O)c3ccc(C(F)(F)F)nc23)c(OC)c1` (centres unmarked) [Example 38, 2-(2,6-difluorobenzamido)-3-(8-(4-(ethoxymethyl)-2,6-dimethoxyphenyl)-2-(trifluoromethyl)quinolin-5-yl)propanoic acid], with 29.7 nM; and `CCOCc1cc(OC)c(-c2cc(F)c(C[C@H](NC(=O)c3c(F)cccc3F)C(=O)O)c3cccnc23)c(OC)c1` [Example 39, (S)-2-(2,6-difluorobenzamido)-3-(8-(4-(ethoxymethyl)-2,6-dimethoxyphenyl)-6-fluoroquinolin-5-yl)propanoic acid], with 81.6 nM.
Compound `CCOCc1cc(OC)c(-c2c(F)cc(C[C@H](NC(=O)c3c(F)cccc3F)C(=O)O)c3cccnc23)c(OC)c1` [Example 40, (S)-2-(2,6-difluorobenzamido)-3-(8-(4-(ethoxymethyl)-2,6-dimethoxyphenyl)-7-fluoroquinolin-5-yl)propanoic acid] came in with an EC50 of 8.6 nM.
Then `CCOCc1cc(OC)c(-c2ccc(C[C@H](NC(=O)c3c(F)cc(C#N)cc3F)C(=O)O)c3cccnc23)c(OC)c1` [Example 42, (S)-2-(4-cyano-2,6-difluorobenzamido)-3-(8-(4-(ethoxymethyl)-2,6-dimethoxyphenyl)quinolin-5-yl)propanoic acid], with 13.4 nM.
With `CCOCc1cc(OC)c(-c2ccc(C[C@H](NC(=O)c3c(F)cc(C(N)=O)cc3F)C(=O)O)c3cccnc23)c(OC)c1` [Example 43, (S)-2-(4-carbamoyl-2,6-difluorobenzamido)-3-(8-(4-(ethoxymethyl)-2,6-dimethoxyphenyl)quinolin-5-yl)propanoic acid] the figure was 4.6 nM.
Compound `CS(=O)(=O)Nc1cc(F)c(C(=O)N[C@@H](Cc2ccc(-c3ccc(C#N)cc3Cl)c3ncccc23)C(=O)O)c(F)c1` [Example 45, (S)-3-(8-(2-chloro-4-cyanophenyl)quinolin-5-yl)-2-(2,6-difluoro-4-(methylsulfonamido)benzamido)propanoic acid] showed an EC50 of 3.4 nM.
Then `N#Cc1ccc(-c2ccc(C[C@H](NC(=O)c3c(F)cc(NS(=O)(=O)c4ccccc4)cc3F)C(=O)O)c3cccnc23)c(Cl)c1` [Example 46, (S)-3-(8-(2-chloro-4-cyanophenyl)quinolin-5-yl)-2-(2,6-difluoro-4-(phenylsulfonamido)benzamido)propanoic acid], with 20 nM.
With `N#Cc1ccc(-c2ccc(C[C@H](NC(=O)c3c(F)cc(NS(=O)(=O)c4ccc(-c5ccnc(F)c5)cc4)cc3F)C(=O)O)c3cccnc23)c(Cl)c1` [Example 47, (S)-3-(8-(2-chloro-4-cyanophenyl)quinolin-5-yl)-2-(2,6-difluoro-4-((4-(2-fluoropyridin-4-yl)phenyl)sulfonamido)benzamido)propanoic acid] the figure was 2.4 nM.
Compound `CS(=O)(=O)Cc1cc(F)c(C(=O)N[C@@H](Cc2ccc(-c3ccc(C#N)cc3Cl)c3ncccc23)C(=O)O)c(F)c1` [Example 48, (S)-3-(8-(2-chloro-4-cyanophenyl)quinolin-5-yl)-2-(2,6-difluoro-4-((methylsulfonyl)methyl)benzamido)propanoic acid] returned an EC50 of 52.1 nM.
The compound `N#Cc1ccc(-c2ccc(C[C@H](NC(=O)c3c(F)cc(CS(=O)(=O)c4ccccc4)cc3F)C(=O)O)c3cccnc23)c(Cl)c1` [Example 49, (S)-3-(8-(2-chloro-4-cyanophenyl)quinolin-5-yl)-2-(2,6-difluoro-4-((phenylsulfonyl)methyl)benzamido)propanoic acid] came in with an EC50 of 33.7 nM.
Then `O=C(N[C@@H](Cc1ccc(-c2ccsc2)c2ncccc12)C(=O)O)c1c(F)cc(NS(=O)(=O)c2ccc(-c3ccnc(F)c3)cc2)cc1F` [Example 52, (S)-2-(2,6-difluoro-4-((4-(2-fluoropyridin-4-yl)phenyl)sulfonamido)benzamido)-3-(8-(thiophen-3-yl)quinolin-5-yl)propanoic acid], with 91.5 nM; and `N#CCc1ccc(-c2ccc(C[C@H](NC(=O)c3c(F)cc(NS(=O)(=O)c4ccc(-c5ccnc(F)c5)cc4)cc3F)C(=O)O)c3cccnc23)c(Cl)c1` [Example 53, (S)-3-(8-(2-chloro-4-(cyanomethyl)phenyl)quinolin-5-yl)-2-(2,6-difluoro-4-((4-(2-fluoropyridin-4-yl)phenyl)sulfonamido)benzamido)propanoic acid], with 3 nM.
With `O=C(N[C@@H](Cc1ccc(-c2ccc(C3CC3)cc2Cl)c2ncccc12)C(=O)O)c1c(F)cc(NS(=O)(=O)c2ccc(-c3ccnc(F)c3)cc2)cc1F` [Example 54, (S)-3-(8-(2-chloro-4-cyclopropylphenyl)quinolin-5-yl)-2-(2,6-difluoro-4-((4-(2-fluoropyridin-4-yl)phenyl)sulfonamido)benzamido)propanoic acid] the figure was 37.4 nM; with `Cc1noc(C)c1-c1ccc(C[C@H](NC(=O)c2c(F)cc(NS(=O)(=O)c3ccc(-c4ccnc(F)c4)cc3)cc2F)C(=O)O)c2cccnc12` [Example 55, (S)-2-(2,6-difluoro-4-((4-(2-fluoropyridin-4-yl)phenyl)sulfonamido)benzamido)-3-(8-(3,5-dimethylisoxazol-4-yl)quinolin-5-yl)propanoic acid], 27.4 nM.
